Values of other authors as cited in patent US11717549B2, “Steviol glycoside solubility enhancers” (CARGILL, INCORPORATED, priority 2017, dated 2023).
Where two headings read alike, the source gives them in different places.

Conditions: cited from earlier work

Compound	solubility (ppm) (temperature 25 ° C.)	other results
1,5-anthraquinone disulfonic acid anilide	–	solubility (ppm) (temperature 18 ° C.): 3.97E+03 ppm
1,7-chloroanthraquinone sulfonic acid	–	solubility (ppm) (temperature 18 ° C.): 1.67E+05 ppm
CCCCC(C)C(=O)O (racemic) [2-methylhexanoic acid]	6.07E+03	–
CCC(C)CCC(=O)O (racemic) [4-methylhexanoic acid]	3.56E+03	–
O=C(O)C(O)c1ccccc1 (racemic) [alpha-hydroxybenzeneacetic acid, (±)]	–	solubility (ppm) (temperature 20 ° C.): 1.21E+05 ppm
CC1(C)[C@@H](C(=O)O)CC[C@@]1(C)C(=O)O (relative stereo) [cis-1,2,2-trimethyl-1,3-cyclopentanedicarboxylic acid, (1R)]	7.54E+03	–
O=C(O)c1cccc(C(=O)O)c1C(=O)O [1,2,3-benzenetricarboxylic acid]	–	solubility (ppm) (temperature 19 ° C.): 2.97E+04 ppm
O=C(O)c1cc(C(=O)O)cc(C(=O)O)c1 [1,3,5-benzenetricarboxylic acid]	–	solubility (ppm) (temperature 16 ° C.): 3.79E+03 ppm
O=C1c2cccc(S(=O)(=O)O)c2C(=O)c2cccc(S(=O)(=O)O)c21 [1,5-anthraquinone disulfonic acid]	–	solubility (ppm) (temperature 18 ° C.): 2.86E+05 ppm
O=C1c2cccc(S(=O)(=O)O)c2C(=O)c2cccc(Cl)c21 [1,5-chloroanthraquinone sulfonic acid]	–	solubility (ppm) (temperature 18 ° C.): 2.50E+05 ppm
O=C1c2cc(S(=O)(=O)O)ccc2C(=O)c2c1cccc2S(=O)(=O)O [1,6-anthraquinone disulfonic acid]	–	solubility (ppm) (temperature 18 ° C.): 3.33E+05 ppm
O=C1c2cc(S(=O)(=O)O)ccc2C(=O)c2c(Cl)cccc21 [1,6-chloroanthraquinone sulfonic acid]	–	solubility (ppm) (temperature 18 ° C.): 1.67E+05 ppm
O=C1c2cccc(S(=O)(=O)Nc3ccccc3)c2C(=O)c2c1cccc2S(=O)(=O)Nc1ccccc1 [1,8-anthraquinone disulfonic acid anilide]	–	solubility (ppm) (temperature 18 ° C.): 2.27E+04 ppm
O=C1c2cccc(S(=O)O)c2C(=O)c2c1cccc2S(=O)O [1,8-anthraquinonedisulfinic acid]	–	solubility (ppm) (temperature 18 ° C.): 2.86E+05 ppm
CCCCC(C)(C)C(=O)O [2,2-dimethylhexanoic acid]	3.44E+03	–
O=C(O)c1ccnc(C(=O)O)c1C(=O)O [2,3,4-pyridinetricarboxylic acid]	–	solubility (ppm) (temperature 15 ° C.): 1.19E+04 ppm
O=C(O)c1cccnc1C(=O)O [2,3-pyridinedicarboxylic acid]	1.09E+04	–
O=C(O)c1c(Br)cc(Br)cc1Br [2,4,6-tribromobenzoic acid]	–	solubility (ppm) (temperature 15 ° C.): 3.49E+03 ppm
O=C(O)c1ccc(O)cc1O [2,4-dihydroxybenzoic acid]	5.96E+03	–
O=C(O)c1ccc([N+](=O)[O-])cc1[N+](=O)[O-] [2,4-dinitrobenzoic acid]	1.79E+04	–
O=C(O)c1c(Cl)cccc1Cl [2,6-dichlorobenzoic acid]	–	solubility (ppm) (temperature not given): 1.39E+04 ppm

Compound	solubility (ppm) (temperature 25 ° C.)	other results
O=C(O)c1c(O)cccc1O [2,6-dihydroxybenzoic acid]	–	solubility (ppm) (temperature not given): 9.47E+03 ppm
CC(=O)Oc1ccccc1C(=O)OC[S+](C)[O-] (stereo not shown) [2-(acetoxy)-benzoic acid, (methylsulfinyl)methyl ester]	–	solubility (ppm) (temperature 21 ° C.): 4.21E+03 ppm
CC(=O)Oc1ccccc1C(=O)O [2-(acetyloxy)benzoic acid]	4.58E+03	–
O=C(O)c1ccccc1C(F)(F)F [2-(trifluoromethyl)benzoic acid]	4.78E+03	–
CCCC=C(CC)C(=O)O [2-ethyl-2-hexenoic acid]	6.06E+03	–
CCC(C)(CC)C(=O)O [2-ethyl-2-methylbutanoic acid]	9.69E+03	–
O=C(O)c1ccccc1F [2-fluorobenzoic acid]	7.15E+03	–
Cc1cccc(C(=O)O)c1O [2-hydroxy-3-methylbenzoic acid]	–	solubility (ppm) (temperature 100 ° C.): 1.15E+04 ppm
Cc1ccc(C(=O)O)c(O)c1 [2-hydroxy-4-methylbenzoic acid]	–	solubility (ppm) (temperature 100 ° C.): 1.00E+04 ppm
Cc1ccc(O)c(C(=O)O)c1 [2-hydroxy-5-methylbenzoic acid]	–	solubility (ppm) (temperature 100 ° C.): 2.14E+04 ppm
O=C(O)c1cccc(C(=O)O)c1O [2-hydroxyisophthalic acid]	–	solubility (ppm) (temperature 100 ° C.): 2.57E+04 ppm
COc1ccccc1C(=O)O [2-methoxybenzoic acid]	4.18E+03	–
CCCCC=C(C)C(=O)O [2-methyl-2-heptenoic acid]	4.64E+03	–
CCCC=CC(C)C(=O)O (stereo not shown) [2-methyl-3-heptenoic acid]	4.64E+03	–
CCC=CCC(C)C(=O)O (stereo not shown) [2-methyl-4-heptenoic acid]	4.64E+03	–
O=C(O)c1ccc(O)c(O)c1 [3,4-dihydroxybenzoic acid]	–	solubility (ppm) (temperature 14 ° C.): 1.79E+04 ppm
O=C(O)c1ccc([N+](=O)[O-])c([N+](=O)[O-])c1 [3,4-dinitrobenzoic acid]	6.66E+03	–
COc1c(Cl)ccc(Cl)c1C(=O)O [3,6-dichloro-2-methoxybenzoic acid]	4.48E+03	–
O=C(O)c1cccc(Br)c1[N+](=O)[O-] [3-bromo-2-nitrobenzoic acid]	7.36E+03	–
O=C(O)c1cccc(Cl)c1C(=O)O [3-chlorophthalic acid]	–	solubility (ppm) (temperature 14 ° C.): 2.08E+04 ppm
CCCC(=CC(=O)O)CC [3-ethyl-2-hexenoic acid]	6.06E+03	–

Compound	solubility (ppm) (temperature 25 ° C.)	other results
CCCC=CCC(=O)O [3-heptenoic acid]	5.37E+03	–
Cc1ccc(C(=O)O)cc1O [3-hydroxy-4-methylbenzoic acid]	–	solubility (ppm) (temperature 100 ° C.): 4.17E+04 ppm
O=C(O)c1cc(=O)c(O)c(C(=O)O)o1 [3-hydroxy-4-oxo-4H-pyran-2,6-dicarboxylic acid]	8.33E+03	–
CCCCC(C)=CC(=O)O [3-methyl-2-heptenoic acid]	4.64E+03	–
CCCC=C(C)CC(=O)O [3-methyl-3-heptenoic acid]	4.64E+03	–
CCC=CC(C)CC(=O)O (stereo not shown) [3-methyl-4-heptenoic acid]	4.64E+03	–
CCCC(C)CC(=O)O (stereo not shown) [3-methylhexanoic acid]	4.80E+03	–
CC(CCCCCC(=O)O)CC(=O)O (stereo not shown) [3-methylnonanedioic acid]	5.53E+03	–
O=C(O)c1cccc([N+](=O)[O-])c1C(=O)O [3-nitrophthalic acid]	1.97E+04	–
CC(C)(C)C(CCC(=O)O)CC(=O)O (stereo not shown) [3-tert-butyl adipic acid]	6.14E+03	–
Cc1cc(S(=O)(=O)O)ccc1N [4-amino-3-methylbenzene sulfonic acid]	–	solubility (ppm) (temperature 20 ° C.): 4.98E+03 ppm
Cc1ccc(N)cc1S(=O)(=O)O [4-amino-o-toluenesulfonic acid]	–	solubility (ppm) (temperature 20 ° C.): 4.48E+03 ppm
CCNCCOC(=O)c1ccc(N)cc1 [4-aminobenzoic aciD-2-(ethyl-amino)ethyl ester]	–	solubility (ppm) (temperature not given): 5.59E+03 ppm
CCC(C=CC(=O)O)CC [4-ethyl-2-hexenoic acid]	6.06E+03	–
CCC=CCCC(=O)O [4-heptenoic acid]	5.37E+03	–
O=C(O)c1cc(=O)c2ccccc2[nH]1 [4-hydroxy-2-quinolinecarboxylic acid]	–	solubility (ppm) (temperature 100 ° C.): 8.84E+03 ppm
CCCC(C)C=CC(=O)O (stereo not shown) [4-methyl-2-heptenoic acid]	4.64E+03	–
CCCC(C)=CCC(=O)O [4-methyl-3-heptenoic acid]	4.64E+03	–
CCC=C(C)CCC(=O)O [4-methyl-4-heptenoic acid]	4.64E+03	–
O=C(O)c1cc(=O)cc(C(=O)O)o1 [4-oxo-4H-pyran-2,6-dicarboxylic acid]	1.41E+04	–
O=C1NC(=O)C2(CCC2)C(=O)N1 [5,5-trimethylenebarbituric acid]	3.71E+03	–

Compound	solubility (ppm) (temperature 25 ° C.)	other results
C=CCC1(CC)C(=O)NC(=O)NC1=O [5-allyl-5-ethylbarbituric acid]	4.75E+03	–
C=CCC1(CC)C(=O)NC(=O)N(CCCC)C1=O (stereo not shown) [5-allyl-5-ethylbutylbarbituric acid]	–	solubility (ppm) (temperature 20 ° C.): 3.99E+03 ppm
O=C(O)c1cc(Cl)ccc1[N+](=O)[O-] [5-chloro-2-nitrobenzoic acid]	9.58E+03	–
CCC(C)CC=CC(=O)O (stereo not shown) [5-ethyl-2-hexenoic acid]	6.06E+03	–
CCCC1(CC)C(=O)NC(=O)NC1=O [5-ethyl-5-n-propylbarbituric acid]	5.66E+03	–
CC=CCCCC(=O)O [5-heptenoic acid]	6.79E+03	–
CCC(C)CC=CC(=O)O (stereo not shown) [5-methyl-2-heptenoic acid]	4.64E+03	–
CC(C)CC=CC(=O)O [5-methyl-2-hexenoic acid]	5.37E+03	–
CCC(C)C=CCC(=O)O (stereo not shown) [5-methyl-3-heptenoic acid]	4.64E+03	–
CCC(C)=CCCC(=O)O [5-methyl-4-heptenoic acid]	4.64E+03	–
CC(C)CCCC(=O)O [5-methylhexanoic acid]	3.93E+03	–
Nc1ccc2cc(S(=O)(=O)O)cc(O)c2c1 [6-amino-4-hydroxy-2-naphthalenesulfonic acid]	–	solubility (ppm) (temperature not given): 4.48E+03 ppm
C=CCCCCC(=O)O [6-heptenoic acid]	5.55E+03	–
CC(C)CC=CCC(=O)O [6-methyl-3-heptenoic acid]	4.64E+03	–
CC(C)C=CCCC(=O)O [6-methyl-4-heptenoic acid]	4.64E+03	–
Cc1ccc([N+](=O)[O-])c(C(=O)O)c1 [6-nitro-3-methylbenzoic acid]	–	solubility (ppm) (temperature 20 ° C.): 4.68E+03 ppm
CCNC(=O)[C@@H](C)OC(=O)Nc1ccccc1 [D-(−)-carbanilic acid (1-ethylcarbamoyl)ethyl ester]	–	solubility (ppm) (temperature 20 ° C.): 3.49E+03 ppm
CC(C)(C(=O)O)C(C)(CC(=O)O)C(=O)O [L-camphoronic acid]	–	solubility (ppm) (temperature 16 ° C.): 9.99E+04 ppm
CC(C)(CCCC(C)(C)C(=O)O)C(=O)O [a,a,a′,a′-tetramethylheptanedioic acid]	7.55E+03	–
